Here are results for 1 compound from paper PMC11439681, “The identification of potent dual-target monopolar spindle 1 (MPS1) and histone deacetylase 8 (HDAC8) inhibitors through pharmacophore modeling, molecular docking, molecular dynamics simulations, and biological evaluation” (Frontiers in Pharmacology, 2024).

One data set concerns HepG2 xenograft tumor. Kind of data set: In vivo antitumor assay, HepG2 xenograft model. Also on record: species or system BALB/c mice. The conditions noted are these: i.p., 1, 5 and 10 mg/kg. As for the experimental part: Male BALB/c mice (6 weeks old) were purchased from Changzhou Cavens Experimental Animal Limited Company (Changzhou, China). The xenograft model was established by subcutaneous injection of a suspension of HepG2 human liver cancer cells in PBS (200 μL, 1 × 10^7 cells) into the mice. The mice were randomized into four groups and received intraperitoneal injections of vehicle or MPH-5 at concentrations of 1, 5 and 10 mg/kg. Tumor volume was measured at 3-day intervals and calculated as follows: (c × c × d)/2 (c, the smallest diameter; d, the largest diameter). The experiments involving animals were approved by the Ethics Committee of China Pharmaceutical University.

Another data set relates to L02. Nature of the data set: MTT cytotoxicity assay, L02 normal cells. The class given is cell-based. The note with it: Homo sapiens, 72 h cell treatment. How it is done:
The cells (5 × 10^4 cells/well) were incubated overnight in 96-well plates. A series of solutions containing varying concentrations of inhibitors were added and incubated at 37°C for a period of 72 h. Subsequently, the culture medium was removed, followed by a subsequent incubation of the cells with a 5 mg/mL MTT stock solution for 4 h. After centrifugation, the precipitate was solubilized in DMSO and gently shaken for 15 min. Finally, the absorbance measurement at 570 nm was completed using a microplate reader. Data analysis was performed using GraphPad Prism 6.0 software.
(Formazan colour is commonly taken as a measure of viable cells.)

Data set [1] can be described thus: In vivo pharmacokinetic study. The conditions noted are these: mouse, plasma, ip, BALB/c mice, i.p., 5 mg/kg. How it is done: MPH-5 was administered intraperitoneally to BALB/c mice at a dose of 5 mg/kg. The blood samples (0.25 mL) were collected at 0.25, 0.5, 1, 2, 4, 8, 16 and 24 h after dosing and centrifuged to obtain the plasma fraction. Plasma samples (50 μL) were transferred into a 96-well plate, followed by the addition of an internal standard solution of methanol/acetonitrile (1:1, v/v) (200 μL). After vortexing for 5 min, the mixture was centrifuged (12,000 rpm for 5 min) to obtain the supernatant (60 μL). A liquid chromatography-tandem mass spectrometry (LC-MS/MS) system was used for the pharmacokinetic study. Data were processed using Phoenix software.

The IC50 is the point on the concentration scale where inhibition reaches its midpoint. As a reminder, the bioavailability is dose-corrected exposure relative to a reference, in per cent.

As for `Cn1cc(-c2cc3cnc(Nc4ccc(-c5cncn5/C=C/C(=O)NO)cc4Cl)cc3n2C(=O)OC(C)(C)C)cn1` [MPH-5], the body weight change entry in the data set on HepG2 xenograft tumor (HepG2 xenograft mice) is reported as “did not induce any significant body weight change”. The “tumor growth (tumor volume)” value in the data set on HepG2 xenograft tumor (HepG2 xenograft, vs vehicle) is “significantly and dose-dependently inhibited the tumor growth”. The same compound registered an IC50 in the data set with L02 of over 10 µM. Also, the AUC in data set [1] (read-out: AUC (h·nmol/L), area under the drug-time curve) was found to be 13800 nmol·h/L. Further, the Cmax in data set [1] (read-out: Cmax (nmol/L), maximum plasma concentration) is 2920 nmol/L. In addition, the bioavailability in data set [1] (read-out: F (%), bioavailability) was determined as 85%. Further, the half-life in data set [1] (read-out: T1/2 (h), elimination half-life (converted)) was 3.46 h.
